Assay results reported in patent publication US6916802B2, “Amino ceramide-like compounds and therapeutic methods of use” (Genzyme Corporation, priority 2002, dated 2005).

What was measured:
[1] = biological target: T1, GlcCer synthase (Canis lupus familiaris, UniProt A0A8I3MXG6); assay: Glycosylceramide synthase activity, MDCK cell homogenate (Specific Example 2); assay type: biochemical, canine
T1 sequence (A0A8I3MXG6 1-394): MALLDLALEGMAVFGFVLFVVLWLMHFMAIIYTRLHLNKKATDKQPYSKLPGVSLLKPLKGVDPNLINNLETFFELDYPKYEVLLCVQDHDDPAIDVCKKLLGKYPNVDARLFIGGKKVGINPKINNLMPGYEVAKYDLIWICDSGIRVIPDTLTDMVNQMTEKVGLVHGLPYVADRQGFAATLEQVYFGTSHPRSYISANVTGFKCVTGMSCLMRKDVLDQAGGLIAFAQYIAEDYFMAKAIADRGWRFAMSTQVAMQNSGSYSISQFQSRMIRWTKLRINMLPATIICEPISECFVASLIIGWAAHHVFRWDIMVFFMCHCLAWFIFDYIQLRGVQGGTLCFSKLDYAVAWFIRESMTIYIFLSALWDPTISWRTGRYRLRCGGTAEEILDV
Method: Glycosylceramide synthase activity. The enzyme activity was measured by the method previously described in Skukla, G. et al., Biochim. Biophys. Acta, 1083:101-108 (1991). MDCK cell homogenate (120 μg of protein) was incubated with uridinediphosphate [^3H]glucose (100,000 cpm) and liposomes consisting of 85 μg octanoylsphingosine, 570 μg dioleoyphosphatidylcholine and 100 μg sodium sulfatide in 200 μl of reaction mixture and kept for 1 h at 37° C. P4 and P4 derivatives dissolved in dimethyl sulfoxide were dispersed into the reaction mixture after adding liposomes. The final concentration of dimethyl sulfoxide was kept 1% under which the enzyme activity was not at all inhibited.

[2] = tested on: MDCK cells; assay: GlcCer, ceramide and diradylglycerol content of treated MDCK cells (Specific Example 2); assay type: cell-based, canine
Method: Cell culture and lipid extraction. One half million of MDCK cells were seeded into 10 cm style dish containing 8 ml serum free DMEM supplemented medium. Shayman, J. A. et al., J. Biol. Chem., 265:12135-12138 (1990). […] The GlcCer synthase inhibitors were added into the medium as a one to one complex with delipidated BSA. Abe, A. et al., J. Lipid. Res., 36:611-621 (1995); Abe, A. et al., Biochim. Biophys. Acta, 1299:331-341 (1996). The cells were incubated for 24 h or 48 h with the inhibitors. After the incubation, the cells were washed twice with 8 ml of cold PBS and fixed with 2 ml of cold methanol. The fixed cells were scraped and transferred to a glass tube. Another one ml of methanol was used to recover the remaining cells in the dish.
Three ml of chloroform was added to the tube and briefly sonicated using a water bath type sonicator. After centrifugation at 800 g for 5 min, the supernatant was transferred into another glass tube. The residues were reextracted with chloroform/methanol (1/1). After the centrifugation, the resultant supernatant was combined with the first one. The residues were air-dried and kept for protein analysis. Adding 0.9% NaCl to the supematant combined, the ratio of chloroform/methanol/aqueous was adjusted to 1/1/1. After centrifugation 800 g for 5 min, the upper layer was discarded. Methanol/water (1/1) with the same amount of volume of the lower layer was used to wash. The resultant lower layer was transferred into a small glass tube and dried down under a stream of nitrogen gas. A part of the lipid was used for lipid phosphate determination. Ames, B. N., Methods Enzymol., 8:115-118 (1966). The remainder was analyzed using HPTLC (Merck).
In order to determine whether inhibition of 1-O-acylceramide synthase was the basis for inhibitor mediated ceramide accumulation, the ceramide and diradylglycerol levels of MDCK cells treated D-threo-P4, D-threo-3′,4′-ethylenedioxy-P4, and D-threo-(4′-hydroxy)-P4 were measured (Table 9). MDCK cells (5×10^5) were seeded into a 10 cm dish and incubated for 24 h. Following the incubation, the cells were treated for 24 or 48 h with or without P4 or the phenyl substitute homologues. Both ceramide and diradylglycerol contents were determined by the method of Preis, J. et al., J. Biol. Chem., 261:8597-8600 (1986). GlcCer content was measured densitometrically by a video camera and use of NIH image 1.49. Significant increases in both ceramide and diradylglycerol occurred only in cells treated with inhibitor concentrations in excess of 1 mM. This was approximately 30-fold lower than the concentration required for inhibition of the 1-O-acylceramide synthase assayed in the cellular homogenates. […] Abe, A. et al., Biochim. Biophys. Acta, 1299:331-341 (1996).
(§1) Effects of D-threo-P4, D-threo4′-hydroxy-P4 and D-threo-3,4′-ethylenedioxy-P4 on GlcCer Synthesis and Cell Growth. To confirm the cellular specificity of D-threo-3′,4′-ethylenedioxy-P4 and D-threo-(4′-hydroxy)-P4 as compared to D-threo-P4, MDCK cells were treated with different concentrations of the inhibitors. The total protein amount in each sample was determined by the BCA method. In GlcCer analysis, lipid samples and standard lipids were applied to the same HPTLC plate pre-treated with borate and developed in a solvent consisting of C/M/W (63/24/4). The level of GlcCer was estimated from a standard curve obtained using a computerized image scanner. The values were normalized on the basis of the phospholipid content. The results are shown in FIG. 7, wherein each bar is the average values from three dishes, with error bars corresponding to one standard deviation. In the control, the total protein and GlcCer were 414±47.4 μg/dish and 24.3±1.97 ng/nmol phosphate, respectively.

[3] = biological target: T2, 1-O-acylceramide synthase (Canis lupus familiaris, UniProt Q6XPZ3); assay: 1-O-acylceramide synthase (transacylase) assay; assay type: biochemical; details: D-threo enantiomers, FIG. 12
T2 construct: the 1-O-acylceramide synthase assayed in the cellular homogenates; endogenous in cells; host or cells: cellular homogenates (MDCK, from context)
T2 sequence (Q6XPZ3 32-408): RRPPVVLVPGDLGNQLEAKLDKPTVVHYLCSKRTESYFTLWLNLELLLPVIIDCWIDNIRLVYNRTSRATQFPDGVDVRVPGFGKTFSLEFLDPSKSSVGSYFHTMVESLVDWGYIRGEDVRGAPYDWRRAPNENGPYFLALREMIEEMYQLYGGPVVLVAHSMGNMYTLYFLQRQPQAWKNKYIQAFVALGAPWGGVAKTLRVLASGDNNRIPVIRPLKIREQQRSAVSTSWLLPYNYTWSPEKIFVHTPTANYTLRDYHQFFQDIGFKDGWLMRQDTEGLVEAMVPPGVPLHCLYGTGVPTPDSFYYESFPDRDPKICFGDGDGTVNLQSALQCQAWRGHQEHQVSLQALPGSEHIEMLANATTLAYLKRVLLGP
Excerpt: Distinguishing Between Inhibition of GlcCer Synthase and 1-O-acylceramide Synthase Inhibition. […] An alternative pathway for ceramide metabolism was subsequently identified, the acylation of ceramide at the 1-hydroxyl position, which was blocked by both threo and erythro diastereomers of PDMP. The specificities of D-threo-P4, D-threo-3′,4′-ethylenedioxy-P4, and D-threo-(4′-hydroxy)-P4 for GlcCer synthase were studied by assaying the transacylase.

[4] = tested on: MDCK cells; assay: Cell growth of treated MDCK cells, total protein (Specific Example 2); assay type: cell-based, canine
Method: Cell culture and lipid extraction. One half million of MDCK cells were seeded into 10 cm style dish containing 8 ml serum free DMEM supplemented medium. Shayman, J. A. et al., J. Biol. Chem., 265:12135-12138 (1990). After 24 h the medium was replaced with 8 ml of the medium containing 0, 11.8, 118 or 1180 nM D-t-P4, D-t-3′,4′-ethylenedioxy-P4 or D-4′-hydroxy)-P4. The GlcCer synthase inhibitors were added into the medium as a one to one complex with delipidated BSA. Abe, A. et al., J. Lipid. Res., 36:611-621 (1995); Abe, A. et al., Biochim. Biophys. Acta, 1299:331-341 (1996). The cells were incubated for 24 h or 48 h with the inhibitors. After the incubation, the cells were washed twice with 8 ml of cold PBS and fixed with 2 ml of cold methanol. The fixed cells were scraped and transferred to a glass tube. Another one ml of methanol was used to recover the remaining cells in the dish.
as §1

[5] = tested on: GlcCer synthase of rabbit liver microsomes; assay: GlcCer synthase of rabbit liver microsomes; assay type: biochemical
[6] = tested on: GlcCer synthase of MDCK cell homogenates; assay: Inhibition of ceramide glucosyltransferase (GlcCer synthase) of MDCK cell homogenates; assay type: biochemical, canine
Method in brief: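 MDCK cell sonicate (~0.2 mg protein) incubated with octanoyl sphingosine (85 μg, in dioleoylphosphatidylcholine/sulfatide liposomes) and UDP-[^3H]glucose in a thermostatted ultrasonic bath. Aromatic inhibitors were dried into the tube; aliphatic inhibitors were incorporated in the substrate liposomes.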

| SMILES | potency as GlcCer synthase inhibitor, in words [1] | GlcCer lost from the cells (depletion) ([2]; 11.3 nM inhibitor) | Ceramide (pmol/nmol phospholipids) ([2]; 11.3 nM, 24 h) | Diradylglycerol (pmol/nmol phospholipids) ([2]; 11.3 nM, 24 h) | Ceramide (pmol/nmol phospholipids) ([2]; 11.3 nM, 48 h) | Diradylglycerol (pmol/nmol phospholipids) ([2]; 11.3 nM, 48 h) | Ceramide (pmol/nmol phospholipids) ([2]; 113 nM, 24 h) | Diradylglycerol (pmol/nmol phospholipids) ([2]; 113 nM, 24 h) | Ceramide (pmol/nmol phospholipids) ([2]; 113 nM, 48 h) | Diradylglycerol (pmol/nmol phospholipids) ([2]; 113 nM, 48 h) | level of ceramide versus untreated cells ([2]; 1130 nM) | Ceramide (pmol/nmol phospholipids) ([2]; 1130 nM, 24 h) | Diradylglycerol (pmol/nmol phospholipids) ([2]; 1130 nM, 24 h) | Ceramide (pmol/nmol phospholipids) ([2]; 1130 nM, 48 h) | Diradylglycerol (pmol/nmol phospholipids) ([2]; 1130 nM, 48 h) | activity in blocking 1-O-acylceramide synthase [3] | total protein versus untreated cells ([4]; 1130 nM) | total protein content versus untreated cells ([4]; 11.3 or 113 nM) | inhibitory activity against GlcCer synthase of rabbit liver microsomes [5] | activity against GlcCer synthase, in words [6] |
| --- | --- | --- | --- | --- | --- | --- | --- | --- | --- | --- | --- | --- | --- | --- | --- | --- | --- | --- | --- | --- |
| CCCCCCCCCCCCCCCC(=O)N[C@H](CN1CCCC1)[C@H](O)c1ccc(O)cc1 [D-threo-4′-hydroxy-P4, D-t-4′-hydroxy-1-phenyl-2-palmitoylamino-3-pyrrolidino-1-propanol] | twice as active as the p-methoxy compound | Approximately 66% | 4.29 ± 0.71 | 30.9 ± 2.01 | 6.70 ± 0.29 | 38.4 ± 1.44 | 5.09 ± 0.95 | 31.5 ± 3.84 | 7.47 ± 0.29 | 41.5 ± 0.66 | two times higher | 7.38 ± 0.13 | 38.5 ± 3.84 | 13.4 ± 1.03 | 47.2 ± 2.51 | comparable activity | significant decrease | little difference | – | – |
| CCCCCCCCCCCCCCCC(=O)N[C@H](CN1CCCC1)[C@H](O)c1ccc(OC)c(OC)c1 [D-t-3′,4′-dimethoxy-P4] | inferior to these dioxy derivatives | – | – | – | – | – | – | – | – | – | – | – | – | – | – | – | – | – | – | – |
| CCCCCCCCCCCCCCCC(=O)NC(CN1CCN(c2ccccc2)CC1)C(O)c1ccccc1 (mixture of isomers) [BML-112] | – | – | – | – | – | – | – | – | – | – | – | – | – | – | – | – | – | – | no inhibitory activity | little or no activity |
